Values of other authors in US6881426B2, “Echinacea angustifolia extracts” (priority 2002, dated 2005).

Test system: hyaluronidase

echinacoside
hyaluronidase inhibition: inhibition
